Assay results taken from paper PMC11726670, “Impact of Linker Composition on VHL PROTAC Cell Permeability” (Journal of Medicinal Chemistry, 2024).
Converted amounts (≈) assume the structure as drawn. Read-outs that look alike come from different tables or passages of the source.

What was measured:
in vitro = assay: in vitro
Protocol: Stock solutions of the controls and of 1–9 were prepared in DMSO at a concentration of 10 mM, then they were further diluted with PBS (pH 7.4) to a final concentration of 10 μM. Five μL of a lecithin/dodecane mixture and 300 μL of PBS (pH 7.4) solution were pipetted into each acceptor plate well, followed by addition of 300 μL of the solutions of the controls or 1–9 to each well of the donor plate. The acceptor plate was placed into the donor plate followed by incubation at 25 °C, 60 rpm for 16 h.[31] After incubation, aliquots of 50 μL from each well of the acceptor and donor plates are transferred into a 96-well plate and 200 μL of acetonitrile was added to each well. Samples were centrifuged for 20 min and compound concentrations were determined by LC/MS/MS (LC system: Shimadzu; Triple Quad).

[1] = chromatographic Log D at pH 7.5; format: physicochemical
From the text: The chromatographic lipophilicities of the nine PROTACs were therefore determined to understand to what extent the cell permeability differences may originate from lipophilicity.

physchem = settings: PBS, pH 6.5, aqueous buffer, kinetic from dmso stock
From the text: Before determining the cell permeability of PROTACs 1–8 we assessed their aqueous solubility.

[2] = pKa determined by photometry; format: physicochemical
Protocol: Both compounds were therefore treated as being mainly uncharged in the subsequent analyses, and the uncharged form of 7 was used in the NMR studies of its conformational ensemble in chloroform.
The pKa of 7 was determined by photometry as reported previously.[57]

VHL = VHL (Homo sapiens, UniProt P40337); assay: cell-based VHL binding assay (NanoBRET, live mode); settings: classified by in cellulo/in vitro ratio
Sequence of VHL (P40337 whole entry): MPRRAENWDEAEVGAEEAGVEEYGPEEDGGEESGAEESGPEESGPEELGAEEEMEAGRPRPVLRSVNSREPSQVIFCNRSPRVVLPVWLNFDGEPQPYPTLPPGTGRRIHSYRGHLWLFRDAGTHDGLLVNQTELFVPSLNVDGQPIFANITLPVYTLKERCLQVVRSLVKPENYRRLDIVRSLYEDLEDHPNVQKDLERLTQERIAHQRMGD
Protocol: IC50 values were calculated using a four-parameter fit, with a commercial software package (Genedata Screener, Switzerland).

ERK5 = test system: ERK5; parameters: method as in PMID 33488971; settings: previously reported PROTAC; read-out: IC50 for binding to ERK5; cited from earlier work
[3] = PBS at pH 6.5; cited from earlier work
[4] = pH 7.5, chromatographic lipophilicity, pH 7.5, read-out: LogD (pH 7.5)
[5] = pH 7.5, chromatographic, supplement, read-out: LogD, pH 7.50

| Compound | Papp at 16 h, 10 μM (in vitro; PAMPA, pH 7.4) [×10⁻⁶ cm/s] | chromatographic logD [1, 4] | chromatographic logD [1, 5] | PAMPA, mean (LogPe, cm/s) (in vitro; 16 h, 10 μM) | PAMPA Log[Pe (cm/s)] (in vitro; 16 h, 10 μM, pH 7.4) | solubility (physchem) [µM] | solubility kinetic (physchem) [µM] | higher PAMPA permeability (in vitro) | improvement in PAMPA permeability (in vitro; 16 h, 10 μM) [fold] | uncharged fraction ([2]; at pH 7.4, from determined pKa) [%] | partially charged fraction ([2]; at physiological pH) [%] | pKa ([2]; tertiary amine of linker, photometry) | cell permeability class (in words) (VHL) | IC50 (ERK5) [µM] | kinetic solubility [3] [µM] |
| --- | --- | --- | --- | --- | --- | --- | --- | --- | --- | --- | --- | --- | --- | --- | --- |
| CN(Cc1cnc2nc(N)nc(N)c2n1)c1ccc(C(=O)N[C@@H](CCC(=O)O)C(=O)O)cc1 [Methotrexate, reference compound] | 0.00427 | – | – | – | – | – | – | – | – | – | – | – | – | – | – |
| Cc1ncsc1-c1ccc(CNC(=O)[C@@H]2C[C@@H](O)CN2C(=O)[C@@H](NC(=O)CCCCCCCCOc2cnc3c(C4CCN(C(=O)c5ccc(OC(F)(F)F)cc5)CC4)ncnc3c2)C(C)(C)C)cc1 [PROTAC 1, 3-Methyl-N-{9-[(4-{1-[4-(trifluoromethoxy)benzoyl]piperidin-4-yl}pyrido[3,2-d]pyrimidin-7-yl)oxy]nonanoyl}-L-valyl-(4R)-4-hydroxy-N-[4-(4-methyl-1,3-thiazol-5-yl)benzyl]-L-prolinamide] | – | 3.8 | 3.81 | -8,29 cm/s | –8.29 ± 0.023 cm/s | < 0.1 | < 1 | – | – | – | – | – | – | – | – |
| Cc1ncsc1-c1ccc(CNC(=O)[C@@H]2C[C@@H](O)CN2C(=O)[C@@H](NC(=O)CCOCCOCCOc2cnc3c(C4CCN(C(=O)c5ccc(OC(F)(F)F)cc5)CC4)ncnc3c2)C(C)(C)C)cc1 [PROTAC 2, 3-Methyl-N-[3-(2-{2-[(4-{1-[4-(trifluoromethoxy)benzoyl]piperidin-4-yl}pyrido[3,2-d]pyrimidin-7-yl)oxy]ethoxy}ethoxy)propanoyl]-L-valyl-(4R)-4-hydroxy-N-[4-(4-methyl-1,3-thiazol-5-yl)benzyl]-L-prolinamide] | – | 2.9 | 2.89 | -5,42 cm/s | –5.42 ± 0.035 cm/s | 0.64 (≈ 0.634 µg/mL) | < 1 | ~3 orders of magnitude | – | – | – | – | – | – | – |
| Cc1ncsc1-c1ccc(CNC(=O)[C@@H]2C[C@@H](O)CN2C(=O)[C@@H](NC(=O)CCOCCNC(=O)COc2cnc3c(C4CCN(C(=O)c5ccc(OC(F)(F)F)cc5)CC4)ncnc3c2)C(C)(C)C)cc1 [PROTAC 3, 3-Methyl-N-[3-(2-{2-[(4-{1-[4-(trifluoromethoxy)benzoyl]piperidin-4-yl}pyrido[3,2-d]pyrimidin-7-yl)oxy]acetamido}ethoxy)propanoyl]-L-valyl-(4R)-4-hydroxy-N-[4-(4-methyl-1,3-thiazol-5-yl)benzyl]-L-prolinamide] | – | 2.7 | 2.66 | -6,21 cm/s | –6.21 ± 0.046 cm/s | 17 (≈ 17.1 µg/mL) | 10 to 20 (≈ 10 to 20.1 µg/mL) | – | – | – | – | – | – | – | – |
| Cc1ncsc1-c1ccc(CNC(=O)[C@@H]2C[C@@H](O)CN2C(=O)[C@@H](NC(=O)COCc2cn(CCOc3cnc4c(C5CCN(C(=O)c6ccc(OC(F)(F)F)cc6)CC5)ncnc4c3)nn2)C(C)(C)C)cc1 [PROTAC 4, 3-Methyl-N-{[(1-{2-[(4-{1-[4-(trifluoromethoxy)benzoyl]piperidin-4-yl}pyrido[3,2-d]pyrimidin-7-yl)oxy]ethyl}-1H-1,2,3-triazol-4-yl)methoxy]acetyl}-L-valyl-(4R)-4-hydroxy-N-[4-(4-methyl-1,3-thiazol-5-yl)benzyl]-L-prolinamide] | – | 2.7 | – | <-7,94 cm/s | <−7.94 ± 0.20 cm/s | 12.1 (≈ 12.3 µg/mL) | 10 to 20 (≈ 10.1 to 20.3 µg/mL) | – | – | – | – | – | – | – | – |
| Cc1ncsc1-c1ccc(CNC(=O)[C@@H]2C[C@@H](O)CN2C(=O)[C@@H](NC(=O)Cc2ccc(OCCOc3cnc4c(C5CCN(C(=O)c6ccc(OC(F)(F)F)cc6)CC5)ncnc4c3)cc2)C(C)(C)C)cc1 [PROTAC 5, 3-Methyl-N-[(4-{2-[(4-{1-[4-(trifluoromethoxy)benzoyl]piperidin-4-yl}pyrido[3,2-d]pyrimidin-7-yl)oxy]ethoxy}phenyl)acetyl]-L-valyl-(4R)-4-hydroxy-N-[4-(4-methyl-1,3-thiazol-5-yl)benzyl]-L-prolinamide] | – | 3.2 | 3.25 | <-7,56 cm/s | <−7.56 ± 0.30 cm/s | 0.36 (≈ 0.363 µg/mL) | < 1 | – | – | – | – | – | – | – | – |

The next lines start with results.

| Papp at 16 h, 10 μM (in vitro; PAMPA, pH 7.4) [×10⁻⁶ cm/s] | chromatographic logD [1, 4] | chromatographic logD [1, 5] | PAMPA, mean (LogPe, cm/s) (in vitro; 16 h, 10 μM) | PAMPA Log[Pe (cm/s)] (in vitro; 16 h, 10 μM, pH 7.4) | solubility (physchem) [µM] | solubility kinetic (physchem) [µM] | higher PAMPA permeability (in vitro) | improvement in PAMPA permeability (in vitro; 16 h, 10 μM) [fold] | uncharged fraction ([2]; at pH 7.4, from determined pKa) [%] | partially charged fraction ([2]; at physiological pH) [%] | pKa ([2]; tertiary amine of linker, photometry) | cell permeability class (in words) (VHL) | Compound | IC50 (ERK5) [µM] | kinetic solubility [3] [µM] |
| --- | --- | --- | --- | --- | --- | --- | --- | --- | --- | --- | --- | --- | --- | --- | --- |
| – | 3 | 2.97 | -7,28 cm/s | –7.28 ± 0.035 cm/s | 0.52 (≈ 0.525 µg/mL) | < 1 | – | – | – | – | – | – | Cc1ncsc1-c1ccc(CNC(=O)[C@@H]2C[C@@H](O)CN2C(=O)[C@@H](NC(=O)Cc2ccc(OCCOc3cnc4c(C5CCN(C(=O)c6ccc(OC(F)(F)F)cc6)CC5)ncnc4c3)cn2)C(C)(C)C)cc1 [PROTAC 6, 3-Methyl-N-[(5-{2-[(4-{1-[4-(trifluoromethoxy)benzoyl]piperidin-4-yl}pyrido[3,2-d]pyrimidin-7-yl)oxy]ethoxy}pyridin-2-yl)acetyl]-L-valyl-(4R)-4-hydroxy-N-[4-(4-methyl-1,3-thiazol-5-yl)benzyl]-L-prolinamide] | – | – |
| – | 3.7 | 3.74 | -6,67 cm/s | –6.67 ± 0.017 cm/s | – | – | – | 40 | 76 | < 25 | 6.9 | – | Cc1ncsc1-c1ccc(CNC(=O)[C@@H]2C[C@@H](O)CN2C(=O)[C@@H](NC(=O)CN(C)CCCCCCOc2cnc3c(C4CCN(C(=O)c5ccc(OC(F)(F)F)cc5)CC4)ncnc3c2)C(C)(C)C)cc1 [PROTAC 7, N-Methyl-N-{6-[(4-{1-[4-(trifluoromethoxy)benzoyl]piperidin-4-yl}pyrido[3,2-d]pyrimidin-7-yl)oxy]hexyl}glycyl-3-methyl-L-valyl-(4R)-4-hydroxy-N-[4-(4-methyl-1,3-thiazol-5-yl)benzyl]-L-prolinamide] | – | – |
| – | 3.6 | 3.64 | -6,9 cm/s | –6.90 ± 0.061 cm/s | – | – | – | – | – | – | – | – | Cc1ncsc1-c1ccc(CNC(=O)[C@@H]2C[C@@H](O)CN2C(=O)[C@@H](NC(=O)CN2CCC(CCCOc3cnc4c(C5CCN(C(=O)c6ccc(OC(F)(F)F)cc6)CC5)ncnc4c3)CC2)C(C)(C)C)cc1 [PROTAC 8, 3-Methyl-N-[(4-{3-[(4-{1-[4-(trifluoromethoxy)benzoyl]piperidin-4-yl}pyrido[3,2-d]pyrimidin-7-yl)oxy]propyl}piperidin-1-yl)acetyl]-L-valyl-(4R)-4-hydroxy-N-[4-(4-methyl-1,3-thiazol-5-yl)benzyl]-L-prolinamide] | – | – |
| – | 2.7 | 2.68 | -6,3 cm/s | –6.30 ± 0.074 cm/s | – | – | – | – | – | – | – | high | Cc1ncsc1-c1ccc(CNC(=O)[C@@H]2C[C@@H](O)CN2C(=O)[C@@H](NC(=O)COCCOCCNC(=O)COc2cnc3c(C4CCN(C(=O)c5ccc(OC(F)(F)F)cc5)CC4)ncnc3c2)C(C)(C)C)cc1 [PROTAC 9] | 1.23 | 6.8 (≈ 7.03 µg/mL) |
